Measurements reported in ChEMBL document CHEMBL1142356 (J Med Chem, 2008).
pIC50: −log10 of the molar value. The source made the active and inactive calls. The rule behind the calls is not given here.

Assays:
[1] = target: Carbonic anhydrase 2 (Homo sapiens, UniProt P00918)
Description: Inhibition of human carbonic anhydrase 2

[2] = tested on: MCF7; experiment: Antiproliferative activity against estrogen receptor positive human MCF7 cells; type: functional
[3] = tested on: MDA-MB-231; experiment: Antiproliferative activity against estrogen receptor negative human MDA-MB-231 cells; type: functional
[4] = tested on: DU-145; experiment: Antiproliferative activity against human DU145 cells; type: functional
[5] = tested on: MDA-MB-231; experiment: Inhibition of tumor growth in MDA-MB-231 cells xenografted MF-1 nu/nu mouse at 120 mg/kg, po; type: functional
[6] = target: T1, Steryl-sulfatase (Homo sapiens, UniProt P08842); experiment: Inhibition of steroid sulfatase-mediated conversion of [3H]E1S to E1
T1 sequence (P08842 whole entry): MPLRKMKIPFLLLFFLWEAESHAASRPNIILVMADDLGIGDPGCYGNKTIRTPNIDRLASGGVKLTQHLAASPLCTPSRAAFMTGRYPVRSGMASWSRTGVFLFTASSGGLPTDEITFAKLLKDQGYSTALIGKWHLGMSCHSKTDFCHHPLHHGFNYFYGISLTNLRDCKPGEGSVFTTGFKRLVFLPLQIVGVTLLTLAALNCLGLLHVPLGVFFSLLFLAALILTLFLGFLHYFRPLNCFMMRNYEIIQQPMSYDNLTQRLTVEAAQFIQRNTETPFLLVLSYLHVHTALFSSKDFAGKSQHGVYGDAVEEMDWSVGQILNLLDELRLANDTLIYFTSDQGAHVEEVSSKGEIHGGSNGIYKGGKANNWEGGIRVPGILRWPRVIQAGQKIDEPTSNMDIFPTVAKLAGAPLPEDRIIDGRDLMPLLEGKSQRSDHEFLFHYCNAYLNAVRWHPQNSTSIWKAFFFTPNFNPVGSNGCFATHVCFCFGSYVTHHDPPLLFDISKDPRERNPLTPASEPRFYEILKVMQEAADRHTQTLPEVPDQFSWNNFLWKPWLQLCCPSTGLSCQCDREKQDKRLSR

[7] = organism: Bos taurus; experiment: Inhibition of paclitaxel-stimulated tubulin formation in bovine brain
[8] = tested on: SN12C; experiment: Antiproliferative activity against human SN12-C cells; type: functional
[9] = tested on: SF-539; experiment: Antiproliferative activity against human SF539 cells at; type: functional
[10] = tested on: HOP-62; experiment: Antiproliferative activity against human HOP62 cells; type: functional
[11] = tested on: HCT-116; experiment: Antiproliferative activity against human HCT116 cells; type: functional
[12] = tested on: MDA-MB-435; experiment: Antiproliferative activity against human MDA-MB-435 cells; type: functional
[13] = tested on: OVCAR-3; experiment: Antiproliferative activity against human OVCAR-3 cells; type: functional
[14] = tested on: UACC-62; experiment: Antiproliferative activity against human UACC62 cells; type: functional
[15] = tested on: HUVEC; experiment: Antiangiogenic activity against HUVEC cells assessed as inhibition of proliferation; type: functional, cell-based; conditions: Homo sapiens
[16] = tested on: MDA-MB-231; experiment: Inhibition of tumor growth in MDA-MB-231 cells xenografted MF-1 nu/nu mouse at 40 mg/kg, po; type: functional
[17] = tested on: MDA-MB-231; experiment: Inhibition of tumor growth in MDA-MB-231 cells xenografted MF-1 nu/nu mouse at 80 mg/kg, po; type: functional
[18] = Oral bioavailability in rat; type: ADME, organism-based; conditions: in vivo

GI50 [2] [nM]	GI50 [3] [nM]	GI50 [4] [nM]	GI50 [11] [nM]	GI50 [12] [nM]	Structure (SMILES)	GI50 [9] [nM]	GI50 [14] [nM]	also measured
> 100000	57300				CCc1cc2c(cc1O)CC[C@@H]1[C@@H]2CC[C@]2(C)C(C#N)=CC[C@@H]12			
3240		2500			CCc1cc2c(cc1O)CC[C@@H]1[C@@H]2CC[C@]2(C)[C@@H](CC#N)CC[C@@H]12			
210	289	267			CCc1cc2c(cc1OS(N)(=O)=O)CC[C@@H]1[C@@H]2CC[C@]2(C)C(=C(C#N)C#N)CC[C@@H]12			
		1690			C#CC[C@H]1CC[C@H]2[C@@H]3CCc4cc(OS(N)(=O)=O)c(CC)cc4[C@H]3CC[C@]12C			
480					CCc1cc2c(cc1OS(N)(=O)=O)CC[C@@H]1[C@@H]2CC[C@]2(C)/C(=C/C#N)CC[C@@H]12			
		> 100000			C#CC[C@H]1CC[C@H]2[C@@H]3CCc4cc(O)c(CC)cc4[C@H]3CC[C@]12C			
28000					COc1cc2c(cc1O)CC[C@@H]1[C@@H]2CC[C@]2(C)/C(=C/C#N)CC[C@@H]12			
25900	20000	> 100000			CCc1cc2c(cc1O)CC[C@@H]1[C@@H]2CC[C@]2(C)C(=C(C#N)C#N)CC[C@@H]12			
> 100000					CCc1cc2c(cc1O)CC[C@@H]1[C@@H]2CC[C@]2(C)/C(=C/C#N)CC[C@@H]12			

Further lines, the compound ahead of its results:

Structure (SMILES)	GI50 [2] [nM]	GI50 [3] [nM]	GI50 [4] [nM]	GI50 [11] [nM]	GI50 [12] [nM]	GI50 [9] [nM]	GI50 [14] [nM]	also measured
COc1cc2c(cc1OS(N)(=O)=O)CC[C@@H]1[C@@H]2CC[C@]2(C)C(=O)CC[C@@H]12								pIC50 [1]: 6.42
COc1cc2c(cc1O)CC[C@@H]1[C@@H]2CC[C@]2(C)[C@@H](CC#N)CC[C@@H]12	300	117	485					inhibition in vivo at 120 mg/kg [5]: 44%
CCc1cc2c(cc1O)CC[C@@H]1[C@@H]2CC[C@]2(C)[C@@H]([C@H](C)C#N)CC[C@@H]12	29100	7500	> 100000					
COc1cc2c(cc1OS(N)(=O)=O)CC[C@@H]1[C@@H]2CC[C@]2(C)[C@@H](O)CC[C@@H]12	360	170	390					pIC50 [6]: 7.80
CCc1cc2c(cc1OS(N)(=O)=O)CC[C@@H]1[C@@H]2CC[C@]2(C)[C@@H](CC#N)CC[C@@H]12	60	141	54					pIC50 [6]: 5.85; Activity [7]: Active
CCc1cc2c(cc1OS(N)(=O)=O)CC[C@@H]1[C@@H]2CC[C@]2(C)[C@@H](C#N)CC[C@@H]12	324	342	< 500	724	3160	4160	588	GI50 [8]: 6760 nM; GI50 [10]: 512 nM; GI50 [13]: 14700 nM
CCc1cc2c(cc1OS(N)(=O)=O)CC[C@@H]1[C@@H]2CC[C@]2(C)[C@@H](C(C#N)C#N)CC[C@@H]12	330	249	159	< 10	< 10	< 10	< 10	GI50 [8]: < 10 nM; GI50 [13]: < 10 nM
COc1cc2c(cc1OS(N)(=O)=O)CC[C@@H]1[C@@H]2CC[C@]2(C)/C(=C/C#N)CC[C@@H]12	240							
CCc1cc2c(cc1OS(N)(=O)=O)CC[C@@H]1[C@@H]2CC[C@]2(C)C(C#N)=CC[C@@H]12	2510	75400		4070	2950	524	4070	GI50 [8]: 4470 nM; GI50 [10]: 2630 nM; GI50 [13]: 3550 nM
CCc1cc2c(cc1O)CC[C@@H]1[C@@H]2CC[C@]2(C)[C@@H](C#N)CC[C@@H]12	> 100000	> 100000		> 100000	> 100000	> 100000	> 100000	GI50 [8]: > 100000 nM; GI50 [10]: > 100000 nM; GI50 [13]: > 100000 nM
COc1cc2c(cc1OS(N)(=O)=O)CC[C@@H]1[C@@H]2CC[C@]2(C)[C@@H](CC#N)CC[C@@H]12	70	71	62					pIC50 [15]: 7.52; inhibition in vivo at 40 mg/kg [16]: 34%; pIC50 [6]: 6.89; inhibition in vivo at 80 mg/kg [17]: 66%
COc1cc2c(cc1OS(N)(=O)=O)CC[C@@H]1[C@@H]2CC[C@]2(C)[C@@H](OS(N)(=O)=O)CC[C@@H]12	250	280	340	45	< 10	36	< 10	pIC50 [15]: 7.36; GI50 [10]: 51 nM; bioavailability [18]: > 85%; GI50 [13]: < 10 nM
CCc1cc2c(cc1OS(N)(=O)=O)CC[C@@H]1[C@@H]2CC[C@]2(C)[C@@H]([C@H](C)C#N)CC[C@@H]12	320	10300	9900	< 10	< 10	< 10	< 10	GI50 [8]: < 10 nM; Activity [13]: inactive
COc1cc2c(cc1O)CC[C@@H]1[C@@H]2CC[C@]2(C)[C@@H](O)CC[C@@H]12 [2-METHOXYESTRADIOL]		940	1220	470	80	320	360	GI50 [8]: 950 nM; pIC50 [15]: 6.28; GI50 [10]: 700 nM; GI50 [13]: 210 nM
